Structures can show the parent of a compound that is named as a salt.
Legend:
[1] = molecular target: JAK1 kinase activity on STAT3 in TF1 cells (Homo sapiens, UniProt P23458); experiment: pSTAT3 cell assay (MSD; TF1 cells, 30 ng/mL IL-6 stimulation); format: cell-based; details: 30 ng/mL IL-6, 15 minutes
Summary of the method: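 Serum-starved TF1 cells with endogenous JAK1/STAT3 were pretreated 1 h with compound in a 10-point four-fold dilution series from 10 μM, then stimulated with 30 ng/mL IL-6 for 15 min. pSTAT3 in lysates was quantified by MSD immunoassay, and IC50 came from 4-parameter logistic fits.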

[2] = molecular target: T1, human JAK1 kinase domain (JH1) (Homo sapiens, UniProt P23458); experiment: JH1 biochemical assay for JAK1 (ADP-Glo kinase assay, recombinant JH1 catalytic domain, JAK3-342 peptide, 35 μM ATP)
T1 construct: recombinantly generated catalytic kinase (also known as JH1) domain of human JAK1, JAK2, JAK3 and TYK2
Summary of the method: (§1)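 Compounds were titrated in 11 points of 3-fold dilution starting at 10 μM or 1 μM. Enzyme (JAK1 4 nM, JAK2 0.2 nM, JAK3 0.3 nM, TYK2 2 nM) and 50 μM peptide reacted for 100 minutes, followed by ADP-to-luminescence detection; IC50 by 4-parameter fit.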

[3] = molecular target: T2, human TYK2 kinase domain (JH1) (Homo sapiens, UniProt P29597); experiment: JH1 biochemical assay for TYK2 (ADP-Glo kinase assay, recombinant JH1 catalytic domain, JAK3-974 peptide, 10 μM ATP)
T2 construct: recombinantly generated catalytic kinase (also known as JH1) domain of human JAK1, JAK2, JAK3 and TYK2
T2 sequence (P29597 897-1176 limits assumed): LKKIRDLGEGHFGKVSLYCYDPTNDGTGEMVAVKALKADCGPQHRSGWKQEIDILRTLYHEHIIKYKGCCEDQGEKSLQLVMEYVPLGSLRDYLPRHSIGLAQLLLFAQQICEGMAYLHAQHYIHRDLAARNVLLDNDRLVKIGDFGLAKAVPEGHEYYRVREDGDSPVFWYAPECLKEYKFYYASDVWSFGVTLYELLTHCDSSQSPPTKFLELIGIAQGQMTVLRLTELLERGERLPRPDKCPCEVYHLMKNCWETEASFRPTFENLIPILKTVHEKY
Summary of the method: as §1

[4] = molecular target: JAK2 kinase activity on STAT5 in TF1 cells (Homo sapiens, UniProt O60674); experiment: pSTAT5 cell assay (MSD; TF1 cells, 30 ng/mL IL-3 stimulation); format: cell-based; details: 30 ng/mL IL-3, 15 minutes
Summary of the method: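 Serum-starved TF1 cells with native JAK2/STAT5 were pretreated 1 h with compound (10-point four-fold dilutions from 10 μM), then stimulated 15 min with 30 ng/mL IL-3. pSTAT5 in lysates quantified by MSD immunoassay; normalized percent activity fitted to a 4-parameter logistic curve for IC50.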

[5] = molecular target: T3, human JAK3 kinase domain (JH1) (Homo sapiens, UniProt P52333); experiment: JH1 biochemical assay for JAK3 (ADP-Glo kinase assay, recombinant JH1 catalytic domain, JAK3-974 peptide, 4 μM ATP)
T3 construct: recombinantly generated catalytic kinase (also known as JH1) domain of human JAK1, JAK2, JAK3 and TYK2
Summary of the method: as §1

[6] = molecular target: T4, human JAK2 kinase domain (JH1) (Homo sapiens, UniProt O60674); experiment: JH1 biochemical assay for JAK2 (ADP-Glo kinase assay, recombinant JH1 catalytic domain, JAK3-974 peptide, 15 μM ATP)
T4 construct: recombinantly generated catalytic kinase (also known as JH1) domain of human JAK1, JAK2, JAK3 and TYK2
Summary of the method: as §1

[7] = molecular target: Tyk2 kinase activity on STAT4 in NK92 cells (Homo sapiens, UniProt P29597); experiment: pSTAT4 cell assay (MSD; NK92 cells, 30 ng/mL IL2 stimulation); format: cell-based; details: 30 ng/mL IL2, 15 minutes
Summary of the method: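 Serum-starved NK92 cells were preincubated 1 hr with compound (10-point, four-fold dilutions from 10 μM), then stimulated with 30 ng/mL IL2 for 15 minutes. Lysates were read on an MSD plate assay using anti-STAT4 antibodies, and IC50 came from a 4-parameter logistic fit of normalized percent activity.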

Chain of Tyk2 kinase activity on STAT4 in NK92 cells (P29597 whole entry): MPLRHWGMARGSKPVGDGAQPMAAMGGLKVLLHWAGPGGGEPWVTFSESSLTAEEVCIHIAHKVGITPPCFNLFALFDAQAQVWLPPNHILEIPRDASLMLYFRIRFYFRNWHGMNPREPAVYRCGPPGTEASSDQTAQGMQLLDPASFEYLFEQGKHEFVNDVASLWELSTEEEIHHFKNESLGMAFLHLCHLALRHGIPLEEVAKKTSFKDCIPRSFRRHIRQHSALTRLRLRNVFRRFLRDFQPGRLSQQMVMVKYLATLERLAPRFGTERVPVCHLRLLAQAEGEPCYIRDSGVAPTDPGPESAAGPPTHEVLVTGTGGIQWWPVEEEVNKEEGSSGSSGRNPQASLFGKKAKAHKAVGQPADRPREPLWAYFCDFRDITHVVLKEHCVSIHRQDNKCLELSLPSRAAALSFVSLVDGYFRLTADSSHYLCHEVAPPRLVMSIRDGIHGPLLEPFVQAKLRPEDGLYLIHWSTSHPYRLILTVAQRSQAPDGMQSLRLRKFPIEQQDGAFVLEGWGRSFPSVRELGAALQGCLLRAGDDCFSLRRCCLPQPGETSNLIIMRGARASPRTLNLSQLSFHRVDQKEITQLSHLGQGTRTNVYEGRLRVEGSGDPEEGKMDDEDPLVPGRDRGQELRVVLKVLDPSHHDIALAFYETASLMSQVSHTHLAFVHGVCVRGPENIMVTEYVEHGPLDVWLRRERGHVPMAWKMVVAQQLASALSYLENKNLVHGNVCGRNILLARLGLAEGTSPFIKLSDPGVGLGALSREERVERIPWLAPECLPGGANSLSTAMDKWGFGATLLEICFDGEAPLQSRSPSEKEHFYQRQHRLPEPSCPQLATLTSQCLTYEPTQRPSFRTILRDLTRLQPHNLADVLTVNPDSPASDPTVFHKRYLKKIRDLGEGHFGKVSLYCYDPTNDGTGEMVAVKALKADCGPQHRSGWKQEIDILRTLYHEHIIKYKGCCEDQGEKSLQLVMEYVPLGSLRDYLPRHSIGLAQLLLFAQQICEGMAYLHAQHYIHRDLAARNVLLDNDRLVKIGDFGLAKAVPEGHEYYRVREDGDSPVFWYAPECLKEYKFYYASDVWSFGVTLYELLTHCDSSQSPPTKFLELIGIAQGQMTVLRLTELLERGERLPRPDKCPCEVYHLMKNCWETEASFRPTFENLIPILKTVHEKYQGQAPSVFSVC
T1 sequence (P23458 875-1153 limits assumed): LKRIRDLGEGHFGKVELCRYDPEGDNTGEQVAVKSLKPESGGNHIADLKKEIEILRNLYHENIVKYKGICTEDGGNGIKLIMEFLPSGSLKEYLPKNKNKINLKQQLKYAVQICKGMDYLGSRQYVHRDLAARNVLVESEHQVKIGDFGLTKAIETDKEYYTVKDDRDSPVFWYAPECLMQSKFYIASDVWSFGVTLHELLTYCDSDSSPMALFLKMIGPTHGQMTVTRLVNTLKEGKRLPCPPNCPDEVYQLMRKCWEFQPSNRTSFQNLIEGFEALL
T3 sequence (P52333 822-1111 limits assumed): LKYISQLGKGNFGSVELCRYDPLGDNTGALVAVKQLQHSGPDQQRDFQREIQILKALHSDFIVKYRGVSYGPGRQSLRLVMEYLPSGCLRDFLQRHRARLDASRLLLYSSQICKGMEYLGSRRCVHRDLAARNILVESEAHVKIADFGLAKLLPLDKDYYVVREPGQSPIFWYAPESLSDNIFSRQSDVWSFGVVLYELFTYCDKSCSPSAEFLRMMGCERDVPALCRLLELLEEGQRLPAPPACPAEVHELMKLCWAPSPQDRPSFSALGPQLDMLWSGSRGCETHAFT
Chain of JAK2 kinase activity on STAT5 in TF1 cells (O60674 whole entry): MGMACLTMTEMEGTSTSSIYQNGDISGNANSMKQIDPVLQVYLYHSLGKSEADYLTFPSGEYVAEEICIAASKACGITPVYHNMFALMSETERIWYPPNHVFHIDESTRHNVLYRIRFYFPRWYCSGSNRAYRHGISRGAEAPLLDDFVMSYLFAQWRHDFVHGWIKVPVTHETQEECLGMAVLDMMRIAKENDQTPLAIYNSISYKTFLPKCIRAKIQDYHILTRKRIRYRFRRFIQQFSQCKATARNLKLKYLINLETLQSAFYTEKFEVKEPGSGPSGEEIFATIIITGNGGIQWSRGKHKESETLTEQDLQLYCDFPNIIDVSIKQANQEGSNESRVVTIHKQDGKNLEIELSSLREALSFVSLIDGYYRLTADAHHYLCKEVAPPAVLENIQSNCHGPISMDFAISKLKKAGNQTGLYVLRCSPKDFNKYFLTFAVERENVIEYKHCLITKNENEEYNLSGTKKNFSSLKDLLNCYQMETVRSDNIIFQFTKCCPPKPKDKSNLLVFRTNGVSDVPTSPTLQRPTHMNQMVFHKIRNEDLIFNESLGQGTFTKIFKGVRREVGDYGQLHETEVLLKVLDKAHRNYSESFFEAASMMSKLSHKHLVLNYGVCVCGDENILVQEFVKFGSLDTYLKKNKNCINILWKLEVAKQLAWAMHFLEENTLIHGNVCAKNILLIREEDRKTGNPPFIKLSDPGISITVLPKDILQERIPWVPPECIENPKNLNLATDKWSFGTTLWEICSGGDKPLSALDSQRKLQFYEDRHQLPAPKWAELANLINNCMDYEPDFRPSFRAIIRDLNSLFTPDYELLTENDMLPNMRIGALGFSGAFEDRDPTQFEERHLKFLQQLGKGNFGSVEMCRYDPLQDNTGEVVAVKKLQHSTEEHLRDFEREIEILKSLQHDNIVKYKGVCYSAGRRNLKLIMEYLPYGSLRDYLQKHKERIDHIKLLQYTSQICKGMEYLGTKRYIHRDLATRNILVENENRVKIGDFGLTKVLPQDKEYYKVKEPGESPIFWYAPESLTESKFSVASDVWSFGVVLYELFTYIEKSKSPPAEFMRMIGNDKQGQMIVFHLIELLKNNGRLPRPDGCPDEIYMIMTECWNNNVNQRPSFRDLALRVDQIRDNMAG
Chain of JAK1 kinase activity on STAT3 in TF1 cells (P23458 whole entry): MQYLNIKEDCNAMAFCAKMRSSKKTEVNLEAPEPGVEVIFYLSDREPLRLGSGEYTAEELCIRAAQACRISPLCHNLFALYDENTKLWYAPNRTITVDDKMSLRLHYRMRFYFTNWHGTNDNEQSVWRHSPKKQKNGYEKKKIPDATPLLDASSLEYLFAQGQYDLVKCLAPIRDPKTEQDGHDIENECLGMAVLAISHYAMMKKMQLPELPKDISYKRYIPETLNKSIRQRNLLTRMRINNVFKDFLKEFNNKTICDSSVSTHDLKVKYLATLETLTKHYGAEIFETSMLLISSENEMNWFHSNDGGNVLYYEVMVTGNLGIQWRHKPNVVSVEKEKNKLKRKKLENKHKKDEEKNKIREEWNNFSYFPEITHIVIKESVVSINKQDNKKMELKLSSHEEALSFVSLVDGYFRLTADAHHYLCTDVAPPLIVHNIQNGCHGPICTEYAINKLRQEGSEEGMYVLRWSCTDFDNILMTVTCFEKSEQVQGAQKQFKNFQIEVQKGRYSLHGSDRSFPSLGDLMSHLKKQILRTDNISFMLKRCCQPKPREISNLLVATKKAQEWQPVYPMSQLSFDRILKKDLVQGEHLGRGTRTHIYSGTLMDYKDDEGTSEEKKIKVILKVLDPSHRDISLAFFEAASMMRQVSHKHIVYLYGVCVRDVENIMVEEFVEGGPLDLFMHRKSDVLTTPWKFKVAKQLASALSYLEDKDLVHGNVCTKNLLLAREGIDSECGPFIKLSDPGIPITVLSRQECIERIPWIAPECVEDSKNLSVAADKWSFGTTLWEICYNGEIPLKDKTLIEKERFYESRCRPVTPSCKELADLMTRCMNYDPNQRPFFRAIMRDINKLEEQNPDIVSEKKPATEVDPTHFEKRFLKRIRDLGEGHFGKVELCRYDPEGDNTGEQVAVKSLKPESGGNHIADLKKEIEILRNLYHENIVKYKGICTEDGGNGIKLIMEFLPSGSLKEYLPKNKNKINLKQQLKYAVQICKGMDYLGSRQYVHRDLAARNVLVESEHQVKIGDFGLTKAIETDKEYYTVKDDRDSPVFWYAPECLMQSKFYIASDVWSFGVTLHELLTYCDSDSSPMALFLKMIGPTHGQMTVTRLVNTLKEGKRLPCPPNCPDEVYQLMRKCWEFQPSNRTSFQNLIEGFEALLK
T4 sequence (O60674 849-1124 limits assumed): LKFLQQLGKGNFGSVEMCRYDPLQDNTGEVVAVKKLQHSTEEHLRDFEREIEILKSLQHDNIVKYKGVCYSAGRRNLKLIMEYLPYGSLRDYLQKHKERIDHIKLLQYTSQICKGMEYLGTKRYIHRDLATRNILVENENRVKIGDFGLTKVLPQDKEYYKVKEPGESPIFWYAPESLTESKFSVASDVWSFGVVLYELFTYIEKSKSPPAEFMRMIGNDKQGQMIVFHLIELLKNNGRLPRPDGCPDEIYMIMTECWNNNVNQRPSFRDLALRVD

Row | Compound | IC50 [1] [nM] | IC50 ([2]; JH1 kinase domain, ADP-Glo) [nM] | IC50 ([3]; JH1 kinase domain, ADP-Glo) [nM] | IC50 [4] [nM] | IC50 ([5]; JH1 kinase domain, ADP-Glo) [nM] | IC50 ([6]; JH1 kinase domain, ADP-Glo) [nM] | IC50 [7] [nM] | IC50 ([2]; JAK1 JH1, ADP-Glo) [nM] | IC50 ([3]; TYK2 JH1, ADP-Glo) [nM] | IC50 ([5]; JAK3 JH1, ADP-Glo) [nM] | IC50 ([6]; JAK2 JH1, ADP-Glo) [nM]
1 | C[C@@H]1CN(c2ccnn3cc(-c4ccn(C)n4)cc23)C(=O)[C@]1(C#N)C1CC1 [Example 63, (3R,4S)-3-cyclopropyl-4-methyl-1-(6-(1-methyl-1H-pyrazol-3-yl)pyrrolo[1,2-b]pyridazin-4-yl)-2-oxopyrrolidine-3-carbonitrile] | > 10000 | 100 to 1000 | 5 to 20 | > 10000 | 100 to 1000 | 100 to 1000 | > 100 | – | – | – | –
2 | C[C@@H]1CN(c2ccnn3cc(-n4cccn4)cc23)C(=O)[C@]1(C#N)C1CC1 [Example 335, (3R,4S)-1-(6-(1H-pyrazol-1-yl)pyrrolo[1,2-b]pyridazin-4-yl)-3-cyclopropyl-4-methyl-2-oxopyrrolidine-3-carbonitrile] | > 10000 | – | – | > 10000 | – | – | > 100 | 100 to 1000 | 20 to 50 | 100 to 1000 | 1000 to 5000
3 | C[C@@H]1CN(c2nc(-c3cnn(C45CC(C4)C5)c3)cn3ncc(F)c23)C(=O)[C@]1(C#N)C1CC1 [Example 207, (3R,4S)-1-(6-(1-(bicyclo[1.1.1]pentan-1-yl)-1H-pyrazol-4-yl)-3-fluoropyrazolo[1,5-a]pyrazin-4-yl)-3-cyclopropyl-4-methyl-2-oxopyrrolidine-3-carbonitrile] | 100 to 1000 | < 100 | < 5 | 1000 to 5000 | < 100 | 100 to 1000 | 50 to 100 | – | – | – | –
4 | C[C@@H]1CN(c2ccnn3cc(-c4cc5n(n4)CCO5)cc23)C(=O)[C@]1(C#N)C1CC1 [Example 110, (3R,4S)-3-cyclopropyl-1-(6-(2,3-dihydropyrazolo[5,1-b]oxazol-6-yl)pyrrolo[1,2-b]pyridazin-4-yl)-4-methyl-2-oxopyrrolidine-3-carbonitrile trifluoroacetate] | > 10000 | 100 to 1000 | 5 to 20 | > 10000 | 100 to 1000 | 100 to 1000 | > 100 | – | – | – | –
5 | C[C@@H]1CN(c2nc(-c3ccnc(C(F)(F)F)c3)cn3nccc23)C(=O)[C@]1(C#N)C1CC1 [Example 234, (3R,4S)-3-cyclopropyl-4-methyl-2-oxo-1-(6-(2-(trifluoromethyl)pyridin-4-yl)pyrazolo[1,5-a]pyrazin-4-yl)pyrrolidine-3-carbonitrile trifluoroacetate] | > 10000 | – | – | > 10000 | – | – | > 100 | 100 to 1000 | 5 to 20 | 100 to 1000 | 100 to 1000
6 | CO[C@H]1C[C@H](n2cc(-c3cn4ncc(F)c4c(N4C[C@@H](C)[C@@](C#N)(C5CC5)C4=O)n3)cn2)C1 [Example 299, (3R,4S)-3-cyclopropyl-1-(3-fluoro-6-(1-((1r,3R)-3-methoxycyclobutyl)-1H-pyrazol-4-yl)pyrazolo[1,5-a]pyrazin-4-yl)-4-methyl-2-oxopyrrolidine-3-carbonitrile] | 100 to 1000 | – | – | 100 to 1000 | – | – | 50 to 100 | < 100 | < 5 | < 100 | < 100
7 | C[C@@H]1CN(c2nc(-c3cnn(C4CCCCC4)c3)cn3ncc(F)c23)C(=O)[C@]1(C#N)C1CC1 [Example 219, (3R,4S)-1-(6-(1-cyclohexyl-1H-pyrazol-4-yl)-3-fluoropyrazolo[1,5-a]pyrazin-4-yl)-3-cyclopropyl-4-methyl-2-oxopyrrolidine-3-carbonitrile] | 100 to 1000 | – | – | 100 to 1000 | – | – | 50 to 100 | < 100 | < 5 | < 100 | < 100
8 | Cc1ccn(-c2cc3c(N4C[C@@H](C)[C@@](C#N)(C5CC5)C4=O)ccnn3c2)n1 [Example 334, (3R,4S)-3-cyclopropyl-4-methyl-1-(6-(3-methyl-1H-pyrazol-1-yl)pyrrolo[1,2-b]pyridazin-4-yl)-2-oxopyrrolidine-3-carbonitrile] | > 10000 | – | – | > 10000 | – | – | > 100 | 1000 to 5000 | 20 to 50 | 100 to 1000 | 1000 to 5000
